Test results reported in patent US4520026A, “Indolizine derivatives and use as cardiovascular agents” (S. A. Labaz N.V., priority 1982, dated 1985).

Assays:
[1] = Acute toxicity by intravenous route to rats; assay type: in vivo; conditions: rat, in vivo, oxalate acid form except those marked (hydrochloride)
Protocol: (§1) Acute toxicity tests were carried out on rats and mice. The following results were registered in comparison with butoprozine. The compounds of the invention were used in oxalate acid form except those marked (x) which were tested in hydrochloride form.

[2] = Acute toxicity by intravenous route to mice; conditions: mouse, in vivo, oxalate acid form except those marked (hydrochloride)
Protocol: as §1

[3] = Acute toxicity by intragastric route to mice; assay type: in vivo; conditions: mouse, in vivo, po, oxalate acid form except those marked (hydrochloride)
Protocol: as §1

mice = test: Acute toxicity by intragastric route to mice; assay type: in vivo; conditions: hydrochloride form (marked)
Protocol: as §1

rats = test: Acute toxicity by intravenous route to rats; assay type: in vivo; conditions: oxalate acid form except those marked (hydrochloride)
Protocol: as §1

[4] = system: epinephrine-increased blood-pressure (anti-α effect); test: Antiadrenergic effect: anti-α effect (reduction of epinephrine-increased blood-pressure); assay type: in vivo; conditions: dog
Outline: (§2)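 Pentobarbital-anaesthetized, atropinized dogs given an epinephrine dose (5–10 μg/kg) raising arterial pressure about 100 mm Hg, then test compound i.v. Reduction of the pressor response (anti-α) and of the ~70-beat tachycardia (anti-β) scored: + <50%, ++ ≥50%, +++ subtotal.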

[5] = system: epinephrine-accelerated heart rate (anti-β effect); test: Antiadrenergic effect: anti-β effect (reduction of epinephrine-accelerated heart rate); assay type: in vivo; conditions: dog; for inhibition in vivo at 5 mg/kg: dose 5 mg/kg i.v.; for Anti-β effect / inhibition in vivo at 10 mg/kg: dose 10 mg/kg i.v.
Outline: as §2

ventricular fibrillation = test: Anti-arrhythmic properties, LAWSON test (chloroform-provoked arrhythmia), intragastric; assay type: in vivo; conditions: Mus musculus, po, mice, read-out: AD50 (dose protecting 50% of the animals against ventricular fibrillation)
Protocol: The arrhythmia was provoked by making the animals inhale chloroform to total asphyxia and by later observing the ventricular rhythm. The dose of compound protecting 50% of the animals against ventricular fibrillation i.e. the AD50 was then recorded.

[6] = Blood level after oral dose in the dog; assay type: in vivo; conditions: same oral dose
[7] = system: blood-flow to the myocardium; test: Effect on blood-flow to the myocardium, anaesthetized dogs, intravenous; assay type: in vivo, dog; conditions: anaesthetized dog
Protocol: It was undertaken on anaesthetized dogs which received the substance under study by intravenous route. The intensity of the maximum effect on blood-flow to the myocardium was expressed in percentage of the corresponding value before injection. The time required for the maximum effect to decrease by 50% represented the duration of the effect. This time was measured in minutes.

dog = test: Cardiac tolerance and general toxicity in long-term toxicity tests, oral, dog; conditions: in vivo
[8] = system: consumption of oxygen by the myocardium; test: Consumption of oxygen by the myocardium; conditions: in vivo
From the text: Furthermore, the indolizine derivatives present a β-antiadrenergic effect which is much more powerful than that of the derivatives of the aforesaid U.S. patent. At the minimum dose required to produce bradycardia, a reduction in arterial pressure, α-antiadrenergic and coronarodilatory effects to a significant degree, the β-antiadrenergic effect is, in fact, only slight in the case of the derivatives of the U.S. patent in question whereas it is much stronger with the indolizine derivatives of the invention. Moreover, the compounds of the invention reduce the consumption of oxygen by the myocardium calculated by multiplying the difference between the arterial and venous blood in oxygen by the coronary blood-flow. Thus, the compounds of the invention cause a considerable reduction in the arterio-venous difference which induces a decrease in the consumption of oxygen in spite of the increase of the coronary blood-flow.

[9] = Canis lupus familiaris, iv, dose 10 mg/kg i.v., read-out: Max. increase (blood-flow to the myocardium)
[10] = Canis lupus familiaris, iv, dose 5 mg/kg i.v., read-out: Max. increase (blood-flow to the myocardium)
[11] = Canis lupus familiaris, iv, dose 10 mg/kg i.v.

Molecule `CCCCN(CCCC)CCCOc1ccc(C(=O)c2c(C)c(Br)c3ccccn23)cc1Br.Cl` [(*)Br/Br/H/CH3/n-C4H9/3, 1-Bromo-2-methyl-3-[4-(3-di-n-butylaminopropyl)-oxy-3-bromo-benzoyl]-indolizine hydrochloride] has an LD50 [1] of 70 mg/kg, an LD50 [2] of 50 mg/kg and an LD50 [3] of over 5000 mg/kg. It also gave an LD0 (mice) of over 5000 mg/kg.
For `CCCCN(CCCC)CCCOc1ccc(C(=O)c2c(-c3ccccc3)c(Br)c3ccccn23)cc1Cl.Cl` [(*)Br/Cl/H/drawing 49/n-C4H9/3, 1-Bromo-2-phenyl-3-[4-(3-di-n-butylaminopropyl)-oxy-3-chloro-benzoyl]-indolizine hydrochloride], the LD50 [1] was over 100 mg/kg.
Molecule `CCCCN(CCCC)CCCOc1ccc(C(=O)c2c(CC)cc3ccccn23)cc1Cl.Cl` [(*)H/Cl/H/C2H5/n-C4H9/3, 2-Ethyl-3-[4-(3-di-n-butylaminopropyl)-oxy-3-chloro-benzoyl]-indolizine hydrochloride] has an LD50 [1] of 65 mg/kg.
`CCCCc1cc2ccccn2c1C(=O)c1ccc(OCCCN(CCCC)CCCC)c(Cl)c1.Cl` [(*)H/Cl/H/n-C4H9/n-C4H9/3, 2-n-butyl-3-[4-(3-di-n-butylaminopropyl)-oxy-3-chloro-benzoyl]-indolizine hydrochloride] showed an LD50 [1] of over 50 mg/kg and an LD0 (rats) of over 50 mg/kg.
In the case of `CCCCN(CCCC)CCCOc1ccc(C(=O)c2c(C)c(Br)c3ccccn23)cc1Br` [Br/Br/H/CH3/n-C4H9/3, 1-Bromo-2-methyl-3-[4-(3-di-n-butylaminopropyl)-oxy-3-bromo-benzoyl]-indolizine], the Anti-α effect ([4]; dose 5 mg/kg i.v.) is reported as “+++”, the Anti-α effect ([4]; dose 10 mg/kg i.v.) is reported as “+++” and the inhibition in vivo at 5 mg/kg ([5]; Canis lupus familiaris, iv) is reported as over 50%. The Anti-β effect [5] was “+++”, the ED50 (ventricular fibrillation) was 180 mg/kg and the “Blood level compared with butoprozine” value [6] was “three times higher”.
In the case of `CCCCN(CCCC)CCCOc1c(C)cc(C(=O)c2c(C)c(Br)c3ccccn23)cc1C` [Br/CH3/CH3/CH3/n-C4H9/3, 1-Bromo-2-methyl-3-[4-(3-di-n-butylaminopropyl)-oxy-3,5-dimethyl-benzoyl]-indolizine], the Anti-α effect ([4]; dose 10 mg/kg i.v.) is reported as “+++”, the inhibition in vivo at 10 mg/kg ([5]; Canis lupus familiaris, iv) is reported as over 50% and the ED50 (ventricular fibrillation) is reported as under 100 mg/kg.
`CCCCN(CCCC)CCCOc1ccc(C(=O)c2c(-c3ccc(Cl)cc3)c(Br)c3ccccn23)cc1Cl` [Br/Cl/H/drawing 50/n-C4H9/3] gave an LD50 [1] of over 100 mg/kg and an LD0 (rats) of over 100 mg/kg.
For `CCCCN(CCCC)CCCOc1ccc(C(=O)c2c(CC)cc3ccccn23)cc1` [Butoprozine, 2-ethyl-3-[4-(3-di-n-butylaminopropyl)-oxy-benzoyl]-indolizine, reference compound], the change in vivo at 10 mg/kg [7, 9] was 120%, the “Time required to decrease to 50% (duration of effect)” value ([7]; dose 10 mg/kg i.v.) was 4 min and the Anti-α effect ([4]; dose 5 mg/kg i.v.) was “+++”. It also gave an inhibition in vivo at 5 mg/kg ([5]; Canis lupus familiaris, iv) of under 50%, an ED50 (ventricular fibrillation) of 270 mg/kg and an LD50 [1] of 22 mg/kg. The LD50 [2] was 25 mg/kg, the LD50 [3] was 1600 mg/kg and the “Dose provoking ventricular arrhythmia (as low as)” value (dog) was 50 mg/kg/day. For the same molecule, the Lethal dose (dog) was 50 to 100 mg/kg/day.
`CCCCc1c(C)c2ccccn2c1C(=O)c1ccc(OCCCN(CCC)CCC)c(Br)c1` [CH3/Br/H/n-C4H9/n-C3H7/3, 1-Methyl-2-n-butyl-3-[4-(3-di-n-propylaminopropyl)-oxy-3-bromo-benzoyl]-indolizine] gave an LD50 [2] of 50 mg/kg.
For `CCCCN(CCCC)CCCOc1ccc(C(=O)c2c(CC)c(Cl)c3ccccn23)cc1Cl` [Cl/Cl/H/C2H5/n-C4H9/3, 1-Chloro-2-ethyl-3-[4-(3-di-n-butylaminopropyl)-oxy-3-chloro-benzoyl]-indolizine], the change in vivo at 1 mg/kg ([7]; Canis lupus familiaris, iv, dose 1 mg/kg i.v., read-out: Max. increase (blood-flow to the myocardium)) was 40%, the “Time required to decrease to 50% (duration of effect)” value ([7]; dose 1 mg/kg i.v.) was 15 min and the Anti-α effect ([4]; dose 0.5 mg/kg i.v.) was “+++”. It also gave an inhibition in vivo at 0.5 mg/kg ([5]; Canis lupus familiaris, iv, dose 0.5 mg/kg i.v.) of under 50% and an LD50 [1] of 50 mg/kg.
With `CCCCc1c(Cl)c2ccccn2c1C(=O)c1ccc(OCCCN(CCCC)CCCC)cc1` [Cl/H/H/n-C4H9/n-C4H9/3, 1-Chloro-2-n-butyl-3-[4-(3-di-n-butylaminopropyl)-oxy-benzoyl]-indolizine] the change in vivo at 10 mg/kg [7, 9] was 60%, the “Time required to decrease to 50% (duration of effect)” value ([7]; dose 10 mg/kg i.v.) was 30 min and the Anti-α effect ([4]; dose 10 mg/kg i.v.) was “+++”. For the same molecule, the inhibition in vivo at 10 mg/kg ([5]; Canis lupus familiaris, iv) was over 50% and the LD50 [1] was 50 mg/kg.
In the case of `CCCCc1cc2ccccn2c1C(=O)c1ccc(OCCCN(CCCC)CCCC)c(Br)c1` [H/Br/H/n-C4H9/n-C4H9/3, 2-n-Butyl-3-[4-(3-di-n-butylaminopropyl)-oxy-3-bromo-benzoyl]-indolizine], the change in vivo at 5 mg/kg [7, 10] is reported as 70%, the “Time required to decrease to 50% (duration of effect)” value ([7]; dose 5 mg/kg i.v.) is reported as 60 min and the Anti-α effect ([4]; dose 5 mg/kg i.v.) is reported as “+++”. For the same molecule, the Anti-α effect ([4]; dose 10 mg/kg i.v.) was “+++”, the inhibition in vivo at 5 mg/kg ([5]; Canis lupus familiaris, iv) was over 50% and the Anti-β effect [5] was “+++”. The ED50 (ventricular fibrillation) was 170 mg/kg and the LD50 [1] was 60 mg/kg.
Work on `CCCCc1cc2ccccn2c1C(=O)c1ccc(OCCCN(CCC)CCC)c(C)c1` [H/CH3/H/n-C4H9/n-C3H7/3, 2-n-Butyl-3-[4-(3-di-n-propylaminopropyl)-oxy-3-methyl-benzoyl]-indolizine] yielded an inhibition in vivo at 5 mg/kg ([4]; Canis lupus familiaris, iv, dose 5 mg/kg i.v.) of over 50%, an inhibition in vivo at 5 mg/kg ([5]; Canis lupus familiaris, iv) of under 50% and an LD50 [2] of over 50 mg/kg.
With `CCCCN(CCCC)CCCOc1c(Cl)cc(C(=O)c2c(C(C)C)cc3ccccn23)cc1Cl` [H/Cl/Cl/iso-C3H7/n-C4H9/3, 2-Isopropyl-3-[4-(3-di-n-butylaminopropyl)-oxy-3,5-dichloro-benzoyl]-indolizine] the change in vivo at 10 mg/kg [7, 9] was 30%, the “Time required to decrease to 50% (duration of effect)” value ([7]; dose 10 mg/kg i.v.) was 75 min and the inhibition in vivo at 10 mg/kg [4, 11] was over 50%. It also gave an inhibition in vivo at 10 mg/kg ([5]; Canis lupus familiaris, iv) of over 50% and an LD50 [1] of over 100 mg/kg.
In the case of `CCCCN(CCCC)CCCOc1ccc(C(=O)c2c(CC)cc3ccccn23)cc1Cl` [H/Cl/H/C2H5/n-C4H9/3, 2-Ethyl-3-[4-(3-di-n-butylaminopropyl)-oxy-3-chloro-benzoyl]-indolizine], the change in vivo at 6 mg/kg ([7]; Canis lupus familiaris, iv, dose 6 mg/kg i.v., read-out: Max. increase (blood-flow to the myocardium)) is reported as 70%, the “Time required to decrease to 50% (duration of effect)” value ([7]; dose 6 mg/kg i.v.) is reported as 45 min and the Anti-α effect ([4]; dose 6 mg/kg i.v.) is reported as “+++”. For the same molecule, the inhibition in vivo at 6 mg/kg ([5]; Canis lupus familiaris, iv, dose 6 mg/kg i.v.) was over 50%.
With `CCCN(CCC)CCCOc1ccc(C(=O)c2c(C(C)C)cc3ccccn23)cc1Cl` [H/Cl/H/iso-C3H7/n-C3H7/3, 2-Isopropyl-3-[4-(3-di-n-propylaminopropyl)-oxy-3-chloro-benzoyl]-indolizine] the change in vivo at 5 mg/kg [7, 10] was 80%, the “Time required to decrease to 50% (duration of effect)” value ([7]; dose 5 mg/kg i.v.) was 90 min and the inhibition in vivo at 10 mg/kg [4, 11] was over 50%. For the same molecule, the inhibition in vivo at 10 mg/kg ([5]; Canis lupus familiaris, iv) was over 50%.
With `CCCCc1cc2ccccn2c1C(=O)c1ccc(OCCCN(CCCC)CCCC)c(Cl)c1` [H/Cl/H/n-C4H9/n-C4H9/3, 2-n-Butyl-3-[4-(3-di-n-butylaminopropyl)-oxy-3-chloro-benzoyl]-indolizine] the change in vivo at 5 mg/kg [7, 10] was 75%, the “Time required to decrease to 50% (duration of effect)” value ([7]; dose 5 mg/kg i.v.) was 30 min and the Anti-α effect ([4]; dose 10 mg/kg i.v.) was “+++”. The inhibition in vivo at 10 mg/kg ([5]; Canis lupus familiaris, iv) was over 50%.
With `CCCCN(CCCC)CCCOc1c(C)cc(C(=O)c2c(CC)c(I)c3ccccn23)cc1C` [I/CH3/CH3/C2H5/n-C4H9/3, 1-Iodo-2-ethyl-3-[4-(3-di-n-butylaminopropyl)-oxy-3,5-dimethyl-benzoyl]-indolizine] the Anti-α effect ([4]; dose 10 mg/kg i.v.) was “+++”, the Anti-β effect [5] was “+++” and the ED50 (ventricular fibrillation) was 100 mg/kg.
For `OCCN(CCO)c1nc(N2CCCCC2)c2nc(N(CCO)CCO)nc(N3CCCCC3)c2n1` [dipyridamole], the “Consumption of oxygen by the myocardium” value [8] was “does not decrease the consumption of oxygen by the myocardium”.
